Tested on: primary cortical neurons
Assay: Analysis of neurite outgrowth and survival of cultured adult cortical neurons (TUBB3/DAPI high-content imaging)
Type: cell-based, mouse
Conditions: for average neurite length vs Vehicle / number of valid neurons vs Vehicle / total neurite outgrowth vs Vehicle: 150 nM 7-epi Paclitaxel; for average neurite length vs Vehicle / number of valid neurons vs Vehicle / total neurite outgrowth vs Vehicle / overall screening result: 3DIV; for overall screening result: 7-epi Paclitaxel
Description: The instant example provides an exemplary protocol, method, and application of processing and screening using adult cortical neurons obtained from adult mice. In particular, the instant example used young adult and middle-aged male and female wild-type C57Bl/6 mice in which the young adult group comprised mice of 4-9 weeks of age and the middle-age group comprised mice of 40-48 weeks of age.
Approximately 20 μL of 50 μg/mL Poly-D-Lysine (PDL, Sigma Aldrich, A-003-M) was added onto the wells of 384-well glass bottom (Brooks Life Sciences, MGB101-1-2-LG-L) or plastic bottom (Greiner-Bio, 781091) plates and incubated inside a 5% CO2 incubator at 37° C. for 48 hours. After incubation, the wells of the plates were washed 5 times with H2O and set to dry overnight at room temperature and were used within 24 hours after drying.
Mice were euthanized and their brains were extracted and placed in cold Hank's balanced salt solution (HBSS) followed by microdissection of the cortex. Up to 1.25 grams of cortical tissue were placed in gentleMACS™ C tubes (Miltenyi Biotec, #130-093-237), where each tube contained 5 mL of 0.3 mg/mL papain (Worthington, LS003126) diluted in HBSS.
The gentleMACS™ C tubes were placed on the gentleMACS™ Octo Dissociator with heaters (Miltenyi Biotec, #130-096-427) with heating cuffs attached and underwent the gentleMACS Program 37C_ABDK_01 protocol. After protocol completion, the contents of the gentleMACS™ C Tube were strained through a 70 μm cell strainer (Miltenyi Biotec, #130-110-916) placed on top of a 15 mL conical centrifuge tube. Then, 7 mL of cold Dulbecco's Phosphate-Buffered Saline with glucose and pyruvate (DPBS, Thermo Fisher Scientific, 14287072) was added into each of the 15 mL conical centrifuge tubes on top of the strained cells. The 15 mL tubes were centrifuged at 300×g for 10 minutes at 4° C. before aspirating the supernatant completely.
Debris removal solution was made by adding 1800 μL of Debris Removal Concentrate (Miltenyi Biotec, #130-109-398) to 6200 μL of cold DPBS. The remaining pellet inside the 15 mL tubes was resuspended with 8 mL of Debris Removal Solution. Very slowly, 4 mL of cold DPBS was dispensed on top of the debris removal solution and cell mixture in each 15 mL tube forming a clear layer on top. The 15 mL tubes were centrifuged at 3000×g for 10 minutes at 4° C. with slow acceleration and deceleration. The top clear and middle debris layers were aspirated leaving the milky mixture beneath the debris layer untouched. 6 mL of DPBS was added onto the milky mixture and mixed gently before centrifuging at 300×g for 5 minutes at 4° C. All supernatant was aspirated afterwards.
Red Blood Cell Remover Solution was made by mixing 125 μL of Red Blood Cell Lysis Solution 10× (Miltenyi Biotec, #130-094-183) with 1125 μL of H2O. The remaining pellet was resuspended in 1.25 mL of Red Blood Cell Remover Solution and incubated for 10 minutes at 4° C. before the addition of 12 mL of 0.5% bovine serum albumin (BSA, Miltenyi Biotec, #130-091-376) diluted in DPBS. The mixture was centrifuged at 300×g for 5 minutes at 4° C. with the supernatant aspirated completely afterwards. The remaining pellet was resuspended in 80 μL of 0.5% BSA and 20 μL of Non-Neuronal Cells Biotin-Antibody Cocktail (Miltenyi Biotec, #130-115-389) and incubated for 5 minutes at 4° C. Cells were washed by adding 2 mL of 0.5% BSA followed by centrifugation at 300×g for 5 minutes at 4° C. followed by aspiration of the supernatant. The remaining pellet was resuspended in 80 μL of 0.5% BSA and 20 μL of Anti-Biotin MicroBeads (Miltenyi Biotec, #130-115-389) and incubated for 10 minutes at 4° C.
After the addition of 6 mL 0.5% BSA, the mixture was flowed through 0.5% BSA primed LS columns (Miltenyi Biotec, #130-042-401). The negative fraction containing the majority of neurons was collected and centrifuged at 300×g for 5 minutes at 4° C. and resuspended in neuron media. […]

[1] = 5 μM (S)-H-1152 vs Vehicle (0.05% DMSO), young adult male mice, 2DIV, 10,000 cells plated per well, two-way ANOVA
[2] = young adult male mice, 2DIV, relative to 0% DMSO
[3] = young adult male mice, 2DIV, PDL coated wells, laminin coating 10 μg/mL

CC(=O)O[C@H]1C(=O)[C@]2(C)[C@H](O)C[C@H]3OC[C@@]3(OC(C)=O)[C@H]2[C@H](OC(=O)c2ccccc2)[C@]2(O)C[C@H](OC(=O)[C@H](O)[C@@H](NC(=O)c3ccccc3)c3ccccc3)C(C)=C1C2(C)C [7-epi Paclitaxel]
average neurite length vs Vehicle (middle-aged male cohort): significantly increased
number of valid neurons vs Vehicle (middle-aged male cohort): without affecting
total neurite outgrowth vs Vehicle (middle-aged male cohort): without affecting
average neurite length vs Vehicle (young adult female cohort): significantly increased
number of valid neurons vs Vehicle (young adult female cohort): significantly decreased
total neurite outgrowth vs Vehicle (young adult female cohort): significantly decreased
average neurite length vs Vehicle (young adult male cohort): significantly increased
number of valid neurons vs Vehicle (young adult male cohort): significantly decreased
total neurite outgrowth vs Vehicle (young adult male cohort): significantly decreased
overall screening result (middle-aged male neurons): overall positive result
overall screening result (young adult neurons): overall negative result

Cc1cncc2cccc(S(=O)(=O)N3CCCNC[C@@H]3C)c12 [(S)-H-1152]
average neurite length [1]: significantly increased
number of valid neurons [1]: significantly increased
slope of the total neurite outgrowth linear regression line against cell plating density (5 μM (S)-H-1152 vs Vehicle, young adult male mice, 2DIV, 1,500-15,000 cells per well): steeper increase

C[S+](C)[O-] [DMSO, Dimethyl sulfoxide]
correlation between average neurite length and % DMSO in the media (linear regression) [2]: significant negative correlation
correlation between number of valid neurons per well and % DMSO in the media (linear regression) [2]: significant negative correlation
correlation between total neurite outgrowth and % DMSO in the media (linear regression) [2]: significant negative correlation

laminin
average neurite length, change relative to the control group (no B27+ supplement or laminin coating) [3]: did not induce a significant changes
number of valid neurons, change relative to the control group (no B27+ supplement or laminin coating) [3]: did not induce a significant changes
total neurite outgrowth, change relative to the control group (no B27+ supplement or laminin coating) [3]: did not induce a significant changes
